In patent US12157730B2, “Heteroaryl derivative, method for producing same, and pharmaceutical composition comprising same as effective component” (VORONOI INC., priority 2019, dated 2024):

These molecules were tested against T1, Ba/F3 cell EGFR Exon20 ins NPH (Homo sapiens, UniProt P00533, INS773NPH) (assay: Ba/F3 cell proliferation suppression, EGFR Exon20 ins NPH). Conditions: GI50 class; Ba/F3 cell line with NPH inserted at Exon20 of EGFR; 72 hours.
T1 construct: expressed in transfected cells; host or cells: Ba/F3
Type: cell-based
Summary of the method: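 Cells (3000–5000/well) plated 24 h before compound, 12-point 3-fold dilutions at 0.3 nM to 50 um final; Ba/F3 lines grown with 5 ng/ml IL-3. Viability by CellTiter-Glo luminescence after 72 h, growth ratio vs control, GI50 from curves; triplicate.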

Ba/F3 (NPH) Activity | SMILES
A (GI50 < 50 nM) | C=CC(=O)Nc1cc(Nc2cc(N3OCC[C@@H]3c3cccc(Cl)c3)ncn2)c(OC)cc1N1CC[C@@H](N2CCOCC2)C1 [compound 465, N-(5-((6-((R)-3-(3-chlorophenyl)isoxazolidine-2-yl)pyrimidine-4-yl)amino)-4-methoxy-2-((R)-3-morpholinopyrolidine-1-yl)phenyl)acrylamide]
A (GI50 < 50 nM) | C=CC(=O)Nc1cc(Nc2cc(N3OCC[C@@H]3Cc3cccc(Cl)c3OC)ncn2)c(OC)cc1N1CCC(N2CCN(C3CC3)CC2)CC1 [compound 1054, N-(5-((6-((S)-3-(3-chloro-2-methoxybenzyl)isoxazolidine-2-yl)pyrimidine-4-yl)amino)-2-(4-(4-cyclopropylpiperazine-1-yl)piperidine-1-yl)-4-methoxyphenyl) acrylamide]
A (GI50 < 50 nM) | C=CC(=O)Nc1cc(Nc2cc(N3OCC[C@@H]3c3cccc(F)c3F)ncn2)c(OC)cc1N1CCC(N2CCN(C3COC3)CC2)CC1 [Example 195, N-(5-((6-((R)-3-(2,3-difluorophenyl)isoxazolidine-2-yl)pyrimidine-4-yl)amino)-4-methoxy-2-(4-(4-(oxetane-3-yl)piperazine-1-yl)piperidine-1-yl)phenyl) acrylamide]
A (GI50 < 50 nM) | C=CC(=O)Nc1cc(Nc2cc(N3OCC[C@@H]3c3ccc(Cl)c(Cl)c3)ncn2)c(OC)cc1N(C)CCN(C)C [compound 669, N-(5-((6-((R)-3-(3,4-dichlorophenyl)isoxazolidine-2-yl)pyrimidine-4-yl)amino)-2-((2-(dimethylamino)ethyl)(methyl)amino)-4-methoxyphenyl) acrylamide]
B (50 nM ≤ GI50 < 500 nM) | C=CC(=O)Nc1cc(Nc2cc(N3OCC[C@@H]3c3ccc4ccccc4c3)ncn2)c(OC)cc1N1CC[C@@H](N(C)C)C1 [compound 513, N-(2-((R)-3-(dimethylamino)pyrolidine-1-yl)-4-methoxy-5-((6-((R)-3-(naphthalene-2-yl)isoxazolidine-2-yl)pyrimidine-4-yl)amino)phenyl)acrylamide]
A (GI50 < 50 nM) | C=CC(=O)Nc1cc(Nc2cc(N3OCC[C@@H]3Cc3cccc(Cl)c3Cl)ncn2)c(OC)cc1N1CCC(N2CCN(C3CC3)[C@H](C)C2)CC1 [compound 980, N-(2-(4-((R)-4-cyclopropyl-3-methylpiperazine-1-yl)piperidine-1-yl)-5-((6-((S)-3-(2,3-dichlorobenzyl)isoxazolidine-2-yl)pyrimidine-4-yl)amino)-4-methoxyphenyl) acrylamide]
A (GI50 < 50 nM) | C=CC(=O)Nc1cc(Nc2cc(N3OCC[C@@H]3c3cc(F)cc(F)c3)ncn2)c(OC)cc1N1CCC(N2C[C@H](C)O[C@@H](C)C2)CC1 [compound 752, N-(5-((6-((R)-3-(3,5-difluorophenyl)isoxazolidine-2-yl)pyrimidine-4-yl)amino)-2-(4-((2S,6S)-2,6-dimethylmorpholino)piperidine-1-yl)-4-methoxyphenyl) acrylamide]
A (GI50 < 50 nM) | C=CC(=O)Nc1cc(Nc2cc(N3OCC[C@@H]3Cc3cccc(F)c3Cl)ncn2)c(OC)cc1N1CCN(C2CC2)CC1 [compound 1006, N-(5-((6-((S)-3-(2-chloro-3-fluorobenzyl)isoxazolidine-2-yl)pyrimidine-4-yl)amino)-2-(4-cyclopropylpiperazine-1-yl)-4-methoxyphenyl) acrylamide]
A (GI50 < 50 nM) | C=CC(=O)Nc1cc(Nc2cc(N3OCC[C@@H]3c3cccc(OC)c3)ncn2)c(OC)cc1N(C)CCN(C)C [Example 24, N-(2-((2-(dimethylamino)ethyl) (methyl)amino)-4-methoxy-5-((6-((R)-3-(3-methoxyphenyl)isoxazolidine-2-yl)pyrimidine-4-yl)amino)phenyl) acrylamide]
A (GI50 < 50 nM) | C=CC(=O)Nc1cc(Nc2cc(N3OCC[C@@H]3c3ccc(F)c(Cl)c3)ncn2)c(OC)cc1N1C[C@@H]2CCN(C)[C@@H]2C1 [compound 316, N-(5-((6-((R)-3-(3-chloro-4-fluorophenyl)isoxazolidine-2-yl)pyrimidine-4-yl)amino)-4-methoxy-2-((3aS,6aS)-1-methylhexahydropyrrolo [3,4-b]pyrrole-5(1H)-yl)phenyl)acrylamide]
C (500 nM ≤ GI50 < 5000 nM) | C=CC(=O)Nc1cc(Nc2cc(N3OCC[C@H]3c3c(F)cccc3F)ncn2)c(OC)cc1N1CCC(N2CCN(C(C)=O)CC2)CC1 [compound 310, N-(2-(4-(4-acetylpiperazine-1-yl)piperidine-1-yl)-5-((6-((S)-3-(2,6-difluorophenyl)isoxazolidine-2-yl)pyrimidine-4-yl)amino)-4-methoxyphenyl) acrylamide]
A (GI50 < 50 nM) | C=CC(=O)Nc1cc(Nc2cc(N3OCC[C@@H]3c3cccc4ccccc34)ncn2)c(OC)cc1N1CCC(N2CCN(C3CC3)[C@H](C)C2)CC1 [Example 155, N-(2-(4-((R)-4-cyclopropyl-3-methylpiperazine-1-yl)piperidine-1-yl)-4-methoxy-5-((6-((R)-3-(naphthalene-1-yl)isoxazolidine-2-yl)pyrimidine-4-yl)amino)phenyl)acrylamide]
A (GI50 < 50 nM) | C=CC(=O)Nc1cc(Nc2cc(N3OCC[C@@H]3c3ccccc3)ncn2)c(OC)cc1N1CCN(C2CCCC2)CC1 [Example 279, N-(2-(4-cyclopentylpiperazine-1-yl)-4-methoxy-5-((6-((R)-3-phenylisoxazolidine-2-yl)pyrimidine-4-yl)amino)phenyl) acrylamide]
A (GI50 < 50 nM) | C=CC(=O)Nc1cc(Nc2cc(N3OCC[C@@H]3c3ccccc3)ncn2)c(OC)cc1N1CCC(N2CC3CC2CN3C)CC1 (stereo partly drawn) [Example 52, N-(4-methoxy-2-(4-(5-methyl-2,5-diazabicyclo [2.2.1]heptane-2-yl)piperidine-1-yl)-5-((6-((R)-3-phenylisoxazolidine-2-yl)pyrimidine-1-yl)amino)phenyl) acrylamide]
A (GI50 < 50 nM) | C=CC(=O)Nc1cc(Nc2cc(N3OCC[C@@H]3c3ccc(Cl)c(Cl)c3)ncn2)c(OC)cc1N1CCC(N2CCOCC2)CC1 [compound 683, N-(5-((6-((R)-3-(3,4-dichlorophenyl)isoxazolidine-2-yl)pyrimidine-4-yl)amino)-4-methoxy-2-(4-morpholinopiperidine-1-yl)phenyl)acrylamide]
A (GI50 < 50 nM) | C=CC(=O)Nc1cc(Nc2cc(N3OCC[C@@H]3c3cc(F)ccc3F)ncn2)c(OC)cc1N1CCC(N2CC3CCC(C2)O3)CC1 [compound 820, N-(2-(4-(8-oxa-3-azabicyclo[3.2.1]octan-3-yl)piperidine-1-yl)-5-((6-((R)-3-(2,5-difluorophenyl)isoxazolidine-2-yl)pyrimidine-4-yl)amino)-4-methoxyphenyl) acrylamide]
A (GI50 < 50 nM) | C=CC(=O)Nc1cc(Nc2cc(N3OCC[C@@H]3c3cc(F)ccc3F)ncn2)c(OC)cc1N1CCN(C(C)=O)CC1 [compound 298, N-(2-(4-acetylpiperazine-1-yl)-5-((6-((R)-3-(2,5-difluorophenyl)isoxazolidine-2-yl)pyrimidine-4-yl)amino)-4-methoxyphenyl) acrylamide]
C (500 nM ≤ GI50 < 5000 nM) | C=CC(=O)Nc1cc(Nc2cc(N3OCC[C@H]3c3c(F)cccc3F)ncn2)c(OC)cc1N1CCN(CC)CC1 [compound 895, N-(5-((6-((S)-3-(2,6-difluorophenyl)isoxazolidine-2-yl)pyrimidine-4-yl)amino)-2-(4-ethylpiperazine-1-yl)-4-methoxyphenyl) acrylamide]
A (GI50 < 50 nM) | C=CC(=O)Nc1cc(Nc2cc(N3OCC[C@@H]3c3cc(F)cc(Cl)c3)ncn2)c(OC)cc1N1CCC(N2CCN(C3CC3)CC2)CC1 [Example 163, N-(5-((6-((R)-3-(3-chloro-5-fluorophenyl)isoxazolidine-2-yl)pyrimidine-4-yl)amino)-2-(4-(4-cyclopropylpiperazine-1-yl)piperidine-1-yl)-4-methoxyphenyl) acrylamide]
A (GI50 < 50 nM) | C=CC(=O)Nc1cc(Nc2cc(N3OCC[C@@H]3c3ccc(F)cc3F)ncn2)c(OC)cc1N1CCN(C(C)=O)CC1 [compound 343]
A (GI50 < 50 nM) | C=CC(=O)Nc1cc(Nc2cc(N3OCC[C@@H]3c3ccc(F)c(Cl)c3F)ncn2)c(OC)cc1N1CCC(N2C[C@H]3C[C@@H]2CO3)CC1 [compound 635, N-(2-(4-((1R,4R)-2-oxa-5-azabicyclo[2.2.1]heptane-5-yl)piperidine-1-yl)-5-((6-((R)-3-(3-chloro-2,4-difluorophenyl)isoxazolidine-2-yl)pyrimidine-4-yl)amino)-4-methoxyphenyl) acrylamide]
B (50 nM ≤ GI50 < 500 nM) | C=CC(=O)Nc1cc(Nc2cc(N3OCC[C@@H]3c3ccc(C)nc3)ncn2)c(OC)cc1N1CCOCC1 [Example 43]
A (GI50 < 50 nM) | C=CC(=O)Nc1cc(Nc2cc(N3OCC[C@@H]3c3ccc(F)cc3F)ncn2)c(OC)cc1N1CCC(N2CCN(C3CC3)CC2)CC1 [Example 139, N-(2-(4-(4-cyclopropylpiperazine-1-yl)piperidine-1-yl)-5-((6-((R)-3-(2,4-difluorophenyl)isoxazolidine-2-yl)pyrimidine-4-yl)amino)-4-methoxyphenyl) acrylamide]
A (GI50 < 50 nM) | C=CC(=O)Nc1cc(Nc2cc(N3OCC[C@@H]3c3ccc(F)c(Cl)c3)ncn2)c(OC)cc1N1CCC(N2CCN(C)[C@H](C)C2)CC1 [compound 901, N-(5-((6-((R)-3-(3-chloro-4-fluorophenyl)isoxazolidine-2-yl)pyrimidine-4-yl)amino)-2-(4-((R)-3,4-dimethylpiperazine-1-yl)piperidine-1-yl)-4-methoxyphenyl) acrylamide]
